Source: patent publication EP0393640B1, “A monoclonal antibody recognizing C-terminus of ANP” (SHIONOGI SEIYAKU KABUSHIKI KAISHA trading under the name of …, priority 1989, dated 1990)
Ends that are not written are not given here.

Assays:
Assay type in all cases: binding, mouse
AN117 = assay: Cross-reactivity of ANP-related polypeptides in the α-hANP radioimmunoassay with AN117; conditions: ascitic fluid AN117A
Protocol: (§1) Using peptide and peptide fragment relating to α-hANP as a sample in α-hANP radioimmunoassay to be described in Example 5, cross reactivity was measured. It was confirmed that both of AN111 and AN117 recognize the C-terminus of α-hANP. Table 1 Assay buffer solution : 0.1 M phosphate buffer solution (pH 7.0) containing 0.372 g of disodium ethylenediamine tetraacetate, 0.063 g of cystine dihydrochloride, 0.262 g of ε-aminocaproic acid, 0.1g of sodium azide and 1 g of bovine serum albumin per liter. Dilute ascitic fluid : A[…] 110,000-fold diluted with Assay buffer solution or A[…] 62,000-fold diluted with Assay buffer solution. α-hANP standard : α-hANP serially two-fold diluted at a range of concentrations from 3.13 ng/ml to 100 ng/ml. 125 I -labelled α-hANP : 125I-labelled α-hANP (Amersham) diluted with Assay buffer solution up to approximately 3.7 KBq/ml. 1 % Bovine gamma globulin : dissolved in Assay buffer solution 37.5 % Polyethylene glycol : polyethylene glycol 6000 dissolved in Assay buffer solution without bovine serum albumin To a tube charged with 100 »l of α-hANP standard or a sample, 100 »l of 125I-labelled α-hANP, 100 »l of dilute ascitic fluid and 200 »l of 1 % bovine gamma globulin were added and the mixture was incubated overnight at 4 °C. […] After removing the supernatant, the radioactivity of the precipitate is measured by a gamma counter (Aloka, ARC-600 type)

[1] = system: AN111 as an immobilized antibody, ¹²⁵I-labelled KY-ANP-I; assay: Cross-reactivity of ANP-related peptides in the sandwich radioimmunoassay (one-step); conditions: one-step assay, AN111 immobilized on beads
Description: Anti-α-ANP [17-28] monoclonal antibody produced by the above hybridoma clone AN111 or AN117 (the antibody is hereinafter referred to as AN111 or AN117) which was immobilized on beads was used as an immobilized antibody. As a labelled antibody, anti-α-hANP [1 -28] monoclonal antibody produced by hybridoma clone KY-ANP-I (ECACC 87082001, EP-A-0 306 309) (the antibody is hereinafter referred to as KY-ANP-I) which was labelled with 125I was used. By the above antibodies, a sandwich radioimmunoassay of α-hANP was established. In 0.05 M phosphate buffer (pH 7.4) containing the IgG fraction (100 »g/ml) of A[…] or A[…] prepared in Item 1 above are immersed polystyrene beads (Ichico, 3.2 mm diameter) and allowed to stand at 4 °C for 20 hr. […] Radioactivity of 125 I -labelled antibody bound to the solid phase was measured by a gamma counter. A standard curve was prepared by plotting a concentration of α-hANP standard at abscissa and the measured radioactivity at ordinate. An ANP concentration in plasma was calculated by applying the radioactivity from the plasma sample to the standard curve. […]

AN111 = assay: Cross-reactivity of ANP-related polypeptides in the α-hANP radioimmunoassay with AN111; conditions: ascitic fluid AN111A
Protocol: as §1

β-hANP: antiparallel dimer of α-hANP (SLRRSSCFGGRMDRIGAQSGLGCNSFRY; ends and bridges not checked; also: antiparallel dimer of α-hANP; UniProt P01160 124-151, looked up)
Cross-reactivity (%) AN117 (AN117): 136% | Cross-Reactivity (Molar %) [1]: 100 Molar % | Cross-reactivity (%) AN111 (AN111): 142%
